In ChEMBL document CHEMBL1201862, “PubChem BioAssay data set” (2004):
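Briefly, cells in 96-well plates were exposed to five compound concentrations for 48 h, and endpoints were estimated by linear interpolation. GI50 is the concentration that inhibits growth by half.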 Calls of active or inactive are those of the source. No stated cut-off is given here; in the data, active = GI50 up to about 1.1 µM and inactive = higher.

Key:
Assay in all cases: NCI anticancer screen, dose series, 48 h
A498 = test system: A498
HCT-116 = test system: HCT-116
K562 = test system: K562
M14 = test system: M14
MCF7 = test system: MCF7
NCI-H23 = test system: NCI-H23
PC-3 = test system: PC-3
RPMI-8226 = test system: RPMI-8226
RXF 393 = test system: RXF 393
SF-295 = test system: SF-295
SF-539 = test system: SF-539
SK-MEL-28 = test system: SK-MEL-28
SK-MEL-5 = test system: SK-MEL-5
SK-OV-3 = test system: SK-OV-3
SR = test system: SR
T47D = test system: T47D
UACC-257 = test system: UACC-257
UO-31 = test system: UO-31
HOP-92 = test system: HOP-92

Measured: GI50

Cc1cc(S(=O)(=O)[N-]/C(=N/S(=O)(=O)c2cc(Cl)sc2Cl)[n+]2ccc(N(C)C)cc2)c(S)cc1Cl
inactive: A498 26.7 µM | HCT-116 24.1 µM | K562 43.9 µM | M14 30.3 µM | MCF7 84.7 µM | NCI-H23 34.9 µM | PC-3 53.8 µM | RPMI-8226 47.5 µM | RXF 393 46.3 µM | SF-295 47.9 µM | SF-539 46.6 µM | SK-MEL-28 84.9 µM | SK-MEL-5 77.8 µM | SK-OV-3 42.9 µM | SR 39.4 µM | T47D > 100 µM | UACC-257 > 100 µM | UO-31 23.2 µM

CSc1nn(C)cc2nc(C)nc1-2
inactive: A498 > 100 µM | HCT-116 > 100 µM | K562 > 100 µM | M14 > 100 µM | MCF7 > 100 µM | NCI-H23 > 100 µM | PC-3 > 100 µM | RPMI-8226 > 100 µM | RXF 393 > 100 µM | SF-295 > 100 µM | SF-539 > 100 µM | SK-MEL-28 > 100 µM | SK-MEL-5 > 100 µM | SR > 100 µM | T47D > 100 µM | UACC-257 > 100 µM | UO-31 > 100 µM

COC(=O)C1=C(C)NC2=C(C(=O)c3ccccc32)C1c1cn(-c2ccccc2)nc1-c1ccccc1 (stereo not drawn)
inactive: A498 > 65.9 µM | HCT-116 12.1 µM | HOP-92 18.3 µM | K562 16.3 µM | M14 > 100 µM | MCF7 26.8 µM | NCI-H23 20.7 µM | PC-3 4.36 µM | RPMI-8226 2.67 µM | RXF 393 > 44.8 µM | SF-295 34.5 µM | SF-539 21.2 µM | SK-MEL-28 96.8 µM | SK-MEL-5 > 100 µM | SK-OV-3 > 100 µM | SR 2 µM | T47D 20.3 µM | UACC-257 > 85.3 µM | UO-31 3.91 µM

C=C(C(=O)O)[C@@H]1C[C@@H]2O[C@H]1CC(C)=CCC/C(C)=C/CC[C@@]2(C)O
inactive: A498 > 100 µM | HCT-116 > 100 µM | HOP-92 93.5 µM | K562 > 100 µM | M14 > 100 µM | MCF7 > 100 µM | PC-3 > 100 µM | RPMI-8226 > 100 µM | RXF 393 > 100 µM | SF-295 > 100 µM | SF-539 > 100 µM | SK-MEL-28 > 100 µM | SK-MEL-5 > 100 µM | SR > 100 µM | T47D > 100 µM | UACC-257 > 100 µM | UO-31 > 100 µM

CC(C)(C)c1cc(C(C)(C)C)c(SSc2c(C(C)(C)C)cc(C(C)(C)C)c(O)c2O)c(O)c1O
inactive: A498 14 µM | HCT-116 10.9 µM | HOP-92 17.7 µM | K562 6.43 µM | M14 11.7 µM | MCF7 10.3 µM | NCI-H23 10.3 µM | PC-3 12.4 µM | RPMI-8226 9.29 µM | RXF 393 16.4 µM | SK-MEL-28 16.3 µM | SK-MEL-5 11.7 µM | SR 2.94 µM | T47D 4.32 µM | UACC-257 9.95 µM | UO-31 6.18 µM

N#CC1C(=O)SC2c3ccccc3C(=O)c3ccccc3C12 (stereo not drawn)
inactive: A498 > 10 µM | HCT-116 > 10 µM | K562 > 10 µM | M14 > 10 µM | MCF7 > 10 µM | NCI-H23 > 10 µM | PC-3 > 10 µM | RPMI-8226 > 10 µM | RXF 393 > 10 µM | SF-295 > 10 µM | SF-539 > 10 µM | SK-MEL-28 > 10 µM | SK-MEL-5 > 10 µM | SK-OV-3 > 10 µM | SR > 10 µM | T47D > 10 µM | UACC-257 > 10 µM | UO-31 > 10 µM

CCCCCCCCCCCCOP(=O)(O)OCC(N)C(=O)O (stereo not drawn)
inactive: A498 24.6 µM | HCT-116 12.1 µM | HOP-92 20.5 µM | K562 29.5 µM | M14 68.1 µM | MCF7 39.3 µM | NCI-H23 29.9 µM | PC-3 15.3 µM | RPMI-8226 24.7 µM | RXF 393 21 µM | SF-295 15.7 µM | SF-539 22.3 µM | SK-MEL-28 94.8 µM | SK-MEL-5 23.4 µM | SK-OV-3 17.1 µM | SR 22 µM | T47D > 100 µM | UACC-257 37.2 µM | UO-31 15.5 µM

CCN(CC)CCOC(=O)Cc1cccc2c(=O)cc(-c3ccccc3)oc12
inactive: A498 54.3 µM | HCT-116 48.3 µM | HOP-92 21.7 µM | K562 40.3 µM | M14 41.7 µM | MCF7 54.1 µM | NCI-H23 45.8 µM | PC-3 49.3 µM | RPMI-8226 35.8 µM | RXF 393 41.5 µM | SF-295 55.6 µM | SF-539 44.1 µM | SK-MEL-28 54 µM | SK-MEL-5 32 µM | SK-OV-3 48.5 µM | SR 24.4 µM | T47D 30.4 µM | UACC-257 54.3 µM | UO-31 5.79 µM
